In patent US20110269812A1, “NOVEL BENZYLIDENE-INDOLINONE AND THEIR MEDICAL AND DIAGNOSTIC USES” (Agency for Science, Technology and Research, priority 2008, published 2011):

Experiments:
[1] = test system: CYP1A1; experiment: 7-ethoxyresorufin O-deethylase (EROD) assay, CYP1A1 induction in Hepa1c1c7 cells; assay type: cell-based, murine; settings: 48 h
Description: Hepa1c1c7 cells were plated at a density of 10000 cells per well in a 96-well plate and cultured for 24 h. A stock solution of test compound was prepared in DMSO and serially diluted with medium to give the desired concentration in the well. The final concentration of DMSO was 0.5% v/v. The cells were incubated with test compound for 48 h, after which the medium was removed, the well washed with 200 μl of 1×phosphate-buffered saline solution (PBS) and then incubated with 5 μM 7-ethoxyresorufin and 2 mM salicylamide in 200 μl of medium at 37° C., 40 min. Readings were taken at λexcitation of 530 nm and λemission of 590 nm on a fluorometer. Fluorescence (if any) of the test compound was determined at the same wavelengths to take into account its contribution to the observed readings. Readings of empty wells (no cells, “blank”) and wells with Hepa1c1c7 cells in medium containing 0.5% DMSO but without test compound (“control”) were also determined. TCDD, a strong inducer of CYP1A1 activity, as well as BNF and sulforaphane were used as controls.
CYP1A1 induction activity was given by the expression:
Degree of induction=FCells+test compound−FBlank/FControl−FBlank
The EROD assay was used for this purpose (Burke, M. D.; Mayer, R. T., Drug Metab Dispos 1974, 2, 583). EROD activity describes the rate at which CYP1A1 caused the O-deethylation of 7-ethoxyresorufin to resorufm. […] This ratio was determined for compounds at concentrations that were approximately 4 times their CD values. A fixed concentration was not used here because it would be difficult to select this concentration in view of the large variation in NQO1 induction activities. The quotient of NQO1 and CYP1A1 induction ratios (ratio determined at the same concentration) was also obtained for each compound. Values >1 would imply greater induction of NQO1 relative to CYP1A1.

[2] = test system: CCL186 (normal human diploid embryonic lung fibroblast); experiment: Antiproliferative MTT assay, CCL186; assay type: cell-based; settings: for IC50: Homo sapiens, CCL186, MTT, 72 h incubation, mean ± SD, n = 3, read-out: IC50 CCL-186; for selectivity ratio: IC50 CCL186/IC50 MCF7 or IC50 CCL186/IC50 HCT116: normal vs cancer cell line
Description: The antiproliferative activity of the compounds according to the invention was determined by the MTT assay on the following cell lines: MCF7 (human breast cancer cell line), HCT116 (human colon cancer cell line), and CCL186 (normal human diploid embryonic lung fibroblast). […] MCF7 and CCL186 cells were cultured in Eagle's Minimum Essential Medium (EMEM) with 1 mM sodium pyruvate, 1.5 g/L sodium bicarbonate, 2 mM L-glutamine supplemented with 10% FBS and 0.01% antibiotics. HCT116 cells were cultured in McCoy's 5A Medium with 2.2 g/L sodium bicarbonate supplemented with […] and 0.01% antibiotics. Cells were plated at the following densities: 10000 cells/well (MCF7), 4000 cells/well (HCT116), 5000 cells/well (CCL186). They were grown for 24 h in a 96-well plate, with 100 μl of corresponding medium in each well. The test compounds were prepared in DMSO and diluted to a series of concentrations with medium. Not more than 1% DMSO (final concentration) was present in each well. The test compounds were incubated with the cells for 72 h, after which 100 μl MTT solution (0.5 mg/ml in 1× PBS) was added for 3 h and the cells lysed to release the formazan product. The latter was dissolved in DMSO (150 μl) and absorbance determined within 30 min at 590 nm on a microtitre plate reader. Cell survival was given by the expression:
Cell survival (%)=[(Acells+test compound−Ablank)/(Auntreated cells−Ablank)]×100
where A is the absorbance of formazan measured at 590 nm in the test (Acells+test compound), control (Auntreated cells) or blank (Ablank) wells. Each concentration of test compound was evaluated on 3 separate occasions. […] The MTT assay was also carried out on Hepa1c1c7 cells for the purpose of determining cytotoxicity of test compounds. The same procedure was adopted except that the incubation period of compound with cells was 48 h, instead of 72 h.

[3] = test system: NQO1; experiment: Induction of NQO1 (QR) activity in Hepa1c1c7 cells
[4] = test system: AFP; experiment: AFP transcription in HuH7 by quantitative real-time PCR; assay type: cell-based, human; settings: HuH7, 10 μM, 24 h, normalized against 18S mRNA
[5] = biological target: T1, Her3 (Homo sapiens, UniProt P21860); experiment: Human phospho-RTK array, HuH7: Her3; assay type: cell-based; settings: 24 h, untreated 0.05
T1 construct: endogenous in cells; host or cells: HuH7
Description: Kinase phosphorylation changes were determined with human phospho-RTK array.
Cells harvesting, hybridization with RTK array and incubation with anti-phosphotyrosine were performed according to manufacturer's instruction. Imaging and quantification of the spots intensities was with Fujifilm LAS-3000 (Tokyo, Japan). Average signal of the duplicate spots for each RTK was determined.

T1 sequence (P21860 20-1342): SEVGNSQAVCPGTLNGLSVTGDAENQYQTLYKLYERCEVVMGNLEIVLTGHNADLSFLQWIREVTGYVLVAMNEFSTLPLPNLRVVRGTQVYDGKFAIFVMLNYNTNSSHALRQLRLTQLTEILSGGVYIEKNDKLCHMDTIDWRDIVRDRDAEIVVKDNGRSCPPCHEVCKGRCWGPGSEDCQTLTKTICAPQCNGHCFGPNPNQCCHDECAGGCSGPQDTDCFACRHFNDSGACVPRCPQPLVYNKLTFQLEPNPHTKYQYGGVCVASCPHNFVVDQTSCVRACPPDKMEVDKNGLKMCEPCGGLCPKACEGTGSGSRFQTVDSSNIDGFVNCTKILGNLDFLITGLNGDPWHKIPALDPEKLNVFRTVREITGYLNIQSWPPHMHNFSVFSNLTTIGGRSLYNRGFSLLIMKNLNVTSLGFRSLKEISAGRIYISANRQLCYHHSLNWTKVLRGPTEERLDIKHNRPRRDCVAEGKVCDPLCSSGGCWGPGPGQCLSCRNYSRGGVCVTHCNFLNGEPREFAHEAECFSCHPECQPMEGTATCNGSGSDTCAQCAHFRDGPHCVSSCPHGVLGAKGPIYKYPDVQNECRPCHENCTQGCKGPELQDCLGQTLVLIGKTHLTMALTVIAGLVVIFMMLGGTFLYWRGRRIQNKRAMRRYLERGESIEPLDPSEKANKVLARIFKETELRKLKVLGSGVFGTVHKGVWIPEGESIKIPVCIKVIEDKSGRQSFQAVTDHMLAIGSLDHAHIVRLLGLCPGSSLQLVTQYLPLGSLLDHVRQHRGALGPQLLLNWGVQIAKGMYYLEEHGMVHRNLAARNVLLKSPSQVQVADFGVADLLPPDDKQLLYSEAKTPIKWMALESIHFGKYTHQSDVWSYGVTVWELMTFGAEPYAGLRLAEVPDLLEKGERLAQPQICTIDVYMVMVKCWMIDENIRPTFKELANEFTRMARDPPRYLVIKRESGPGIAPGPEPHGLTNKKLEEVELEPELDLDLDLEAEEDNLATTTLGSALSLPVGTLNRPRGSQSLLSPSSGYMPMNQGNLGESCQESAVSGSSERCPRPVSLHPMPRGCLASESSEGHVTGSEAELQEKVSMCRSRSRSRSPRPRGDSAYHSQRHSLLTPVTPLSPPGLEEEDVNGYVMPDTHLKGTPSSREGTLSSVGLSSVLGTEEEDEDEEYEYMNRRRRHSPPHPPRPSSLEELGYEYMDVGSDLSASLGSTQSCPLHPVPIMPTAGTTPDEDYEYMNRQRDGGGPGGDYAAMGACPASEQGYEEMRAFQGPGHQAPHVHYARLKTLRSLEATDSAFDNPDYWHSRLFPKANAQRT

`COc1cccc(/C=C2/C(=O)Nc3cc(OC)ccc32)c1` [Compound 42, (E)-6-Methoxy-3-(3-methoxybenzylidene)indolin-2-one] showed a CYP1A1 induction ratio ([1]; 0.5 μM) of 1.13 ± 0.01, an IC50 [2] of 1.8 ± 0.2 µM and an NQO1 induction ratio ([3]; 0.5 μM, read off from plot) of 3.08. The “NQO1/CYP1A1 Quotient” value ([3]; both ratios at 0.5 μM) was 2.72.
`COc1ccc2c(c1)NC(=O)/C2=C/c1ccc(OC)c(O)c1` [Compound 45, (E)-3-(3-Hydroxy-4-methoxybenzylidene)-6-methoxyindolin-2-one] was tested, and the CYP1A1 induction ratio ([1]; 1 μM) was 1.05 ± 0.01, the IC50 [2] was 11.3 ± 0.4 µM and the NQO1 induction ratio ([3]; 1 μM, read off from plot of degree of induction versus concentration) was 4.34. The “NQO1/CYP1A1 Quotient” value ([3]; both ratios at 1 μM) was 4.13.
`O=C1Nc2cc(F)ccc2/C1=C\c1cccc(C(F)(F)F)c1` [Compound 46, (E)-6-Fluoro-3-(3-(trifluoromethyl)benzylidene)indolin-2-one] was tested, and the CYP1A1 induction ratio ([1]; 0.05 μM) was 1.23 ± 0.08, the IC50 [2] was 7.5 ± 0.7 µM and the “selectivity ratio: IC50 CCL186/IC50 MCF7 or IC50 CCL186/IC50 HCT116” value [2] was roughly 1. The NQO1 induction ratio ([3]; 0.05 μM, read off from plot) was 3.31 and the “NQO1/CYP1A1 Quotient” value ([3]; both ratios at 0.05 μM) was 2.69.
`O=C1Nc2cc(Cl)ccc2/C1=C\c1cccc(C(F)(F)F)c1` [Compound 47, (E)-6-Chloro-3-(3-(trifluoromethyl)benzylidene)indolin-2-one] was tested, and the IC50 [2] was 6.6 ± 0.5 µM, the “selectivity ratio: IC50 CCL186/IC50 MCF7 or IC50 CCL186/IC50 HCT116” value [2] was roughly 1 and the “AFP transcript vs untreated controls” value [4] was “significantly repressed to one-third”. The NQO1 induction ratio ([3]; 0.05 μM, read off from plot) was 5.20, the “NQO1/CYP1A1 Quotient” value ([3]; both ratios at 0.05 μM) was 2.17 and the “Her3 Phosphorylation” value ([5]; serum starved HuH7, 1 μM) was 0.07 Arbitrary units. For the same compound, the “Her3 Phosphorylation” value ([5]; serum starved HuH7, 5 μM) was 0.04 Arbitrary units and the “Her3 Phosphorylation” value ([5]; serum starved HuH7, 10 μM) was 0.03 Arbitrary units.
Work on `COc1ccc2c(c1)NC(=O)/C2=C/c1cccc(C(F)(F)F)c1` [Compound 48, (E)-6-Methoxy-3-(3-(trifluoromethyl)benzylidene)indolin-2-one] yielded a CYP1A1 induction ratio ([1]; 0.5 μM) of 1.36 ± 0.07, an IC50 [2] of 5.4 ± 0.3 µM and an NQO1 induction ratio ([3]; 0.5 μM, read off from plot) of 4.22. The “NQO1/CYP1A1 Quotient” value ([3]; both ratios at 0.5 μM) was 3.10.
